Test [1] concerns the target T1, IDO1 (Homo sapiens, UniProt P14902). In words: IDO1 cellular assay in HeLa cells stimulated with IFNγ. In kind it is cell-based. The following applies: IFNγ 100 ng/mL, 300 uM L-tryptophan, about 48 hours, fluorescence readout, read-out: HeLa Cell Potency, IC50. The protocol:
Biological Assays IDO1 Cellular Assay in HeLa Cells Stimulated with IFNγ
HeLa cells were cultured in complete HeLa culture medium (90% EMEM, 10% heat-inactivated fetal bovine serum) and expanded to about 1×10^9 cells. The cells were then collected and frozen down at 1×10^7 cells/vial in 1 mL frozen medium (90% complete HeLa culture medium, 10% DMSO).
Compounds to be tested were serially diluted in ten 3-fold steps in DMSO starting from 10 mM DMSO stocks in Echo low volume plate(s). Compound dilutions or DMSO alone were then dispensed from the dilution plate(s) into Greiner black 384-well assay plate(s) (catalog #781086, 50 nL/well) using an Echo 550 acoustic liquid handler (Labcyte).
Frozen HeLa cells were thawed and transferred into HeLa assay medium (99% complete HeLa culture medium, 1% Pen/Strep) with 20 mL medium/vial of cells. The cells were spun down at 250 g in a table top centrifuge for 5 min and suspended in same volume of HeLa assay medium. The cells were then counted and adjusted to a density of 2×10^5 cells/mL in HeLa assay medium. Sterile L-tryptophan were added to the cells with final concentration of 300 uM L-tryptophan. A small aliquot (2 mL/plate) of HeLa cells were set aside and were not treated with IFNγ, to serve as the Max-E control.
HeLa cells with and without IFNγ were dispensed to the respective wells of 384-well assay plates containing the compounds. The plates were incubated for about 48 hours at a 37° C., 5% CO2 incubator. Afterwards, 12 μL of 0.5 M methyl isonipecotate in dimethyl sulfoxide were added into each well and the plates were sealed and incubated at 37° C. without CO2 overnight. The plates were centrifuged for 1 min at 200×g. The resulting fluorescence was measured in a Spectramax plate reader (Molecular Devices) with a 400 nm excitation filter and a 510 nm emission filter.
The fluorescence intensity of each well was corrected for the background observed in wells with non-IFNγ-treated cells and was expressed as a fraction of the intensity observed in wells of IFNγ-treated cells and DMSO only. Potencies were calculated by linear least squares fit to the four parameter logistic IC50 equation.

The target of test [2] is T1, IDO1. Kind of test: IDO1 human whole blood assay. In kind it is cell-based. Set-up: Human whole blood was drawn in sodium heparin coated tubes from healthy internal donors; from tissue; host or cells: human whole blood from healthy donors, stimulated with LPS/IFNγ. As to conditions: stimulant 100 ng/mL final, 18 h, kynurenine by LC/MS/MS, read-out: Human Whole Blood Potency, IC50. The protocol:
IDO1 Human Whole Blood Assay
Compounds to be tested were serially diluted in ten 3-fold steps in DMSO starting from 10 mM. 3 μL of compound dilutions or DMSO alone were then dispensed from the dilution plate into a polypropylene 96-well assay plate containing 97 μL of RPMI medium using an Echo 555 acoustic liquid handler (Labcyte). Lipopolysaccharide (LPS) induced IFNγ was prepared in RPMI medium to a 10× of final conc. (1000 ng/mL), final concentration is 100 ng/mL.
Human whole blood was drawn in sodium heparin coated tubes from healthy internal donors. 240 μL of blood was transferred to each of the wells of a v-bottom 96 well plate. 30 μL of compound was transferred from intermediate dilution plate, and incubated for 15 min. 30 μL from stimulants was then transferred to blood and mixed thoroughly. Plate was covered with breathable membrane and incubated at 37° C. for overnight (18 h).
On day 2, isotope labeled standard solutions of kunurenine and tryptophan was made in water at 10× concentration and 30 μL was added to the blood at 3 μM final concentration. The assay plates were centrifuged at 300×G for 10 min with no brake to separate plasma from red blood cells. 60 μL of plasma samples was removed without disturbing red blood cells. Plasma was diluted with RPMI in 1:1 ratio and proteins were precipitated out with two volumes of Acetonitrile. The plates were centrifuged at 4000×G for 60 min. 20 μL of supernatant was carefully transferred to a 384 well plate containing 40 μL of 0.1% formic acid in water and analyzed by LC/MS/MS.
LC/MS/MS analyses were performed using Thermo Fisher's LX4-TSQ Quantum Ultra system. This system consists of four Agilent binary high-performance liquid chromatography (HPLC) pumps and a TSQ Quantum Ultra triple quadrupole MS/MS instrument. For each sample, 5 μL were injected onto an Atlantis T3 column (2.1 mm×150 mm, 3 μm particle size) from Waters. The mobile phase gradient pumped at 0.8 mL/min was used to elute the analytes from the column at 25° C. […] Compounds were titrated and IC50's were calculated by 4 parameter sigmoidal curve fitting formula.

T1 sequence (P14902 whole entry): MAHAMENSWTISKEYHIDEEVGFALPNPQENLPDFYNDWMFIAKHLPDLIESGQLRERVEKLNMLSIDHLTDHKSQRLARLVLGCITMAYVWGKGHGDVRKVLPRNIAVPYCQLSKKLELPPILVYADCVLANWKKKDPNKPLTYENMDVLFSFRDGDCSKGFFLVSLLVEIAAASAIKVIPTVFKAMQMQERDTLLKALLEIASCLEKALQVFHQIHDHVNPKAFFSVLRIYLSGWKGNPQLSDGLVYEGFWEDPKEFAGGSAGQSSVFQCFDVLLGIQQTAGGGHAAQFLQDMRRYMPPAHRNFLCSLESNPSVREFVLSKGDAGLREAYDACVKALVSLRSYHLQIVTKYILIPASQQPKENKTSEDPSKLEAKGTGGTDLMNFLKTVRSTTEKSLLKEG

`O=C(NC1(c2ccc3c(n2)CCC[C@H]3Oc2cccc(Cl)c2)CC1)c1ccc(F)cc1` (single isomer, unassigned) [Example 2]: the IC50 (commonly the midpoint of a concentration-inhibition curve) in test [1] worked out at 2.98 nM; in test [2] it was 864 nM.
The corresponding values for `O=C(NC1(c2ccc3c(n2)CCCC3Oc2cccc(Cl)c2)CC1)c1ccc(F)cc1` (stereo not drawn) [Example 1, N-(1-(5-(3-chlorophenoxy)-5,6,7,8-tetrahydroquinolin-2-yl)cyclopropyl)-4-fluorobenzamide] are 2.68 nM and 601 nM.
The corresponding values for `O=C(NC1(c2ccc3c(n2)CCC[C@@H]3Oc2cccc(Cl)c2)CC1)c1ccc(F)cc1` (single isomer, unassigned) [Example 3] are 6.99 nM and greater than 1000 nM.

The values above are taken from patent US11992489B2, “Substituted tetrahydroquinoline compounds as indoleamine 2,3-dioxygenase inhibitors” (Merck Sharp & Dohme LLC, priority 2018, dated 2024).
